Where “and” joins values, the source holds several entries; their conditions need not be identical. Equal entries are not always repeated.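 Interpolation was linear, between the two tested concentrations surrounding the appropriate level; five concentrations were tested over 48 hours in 96-well plates. The concentration for 50% growth inhibition is given as GI50. TGI: concentration producing complete growth inhibition.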
Assays:
Experiment in all cases: NCI tumour cell line growth inhibition, 48 h
MDA-MB-231 breast = tested on: MDA-MB-231 breast
MDA-N = tested on: MDA-N
786-0 renal = tested on: 786-0 renal
SR leukemia = tested on: SR leukemia
PC-3 prostate = tested on: PC-3 prostate
MDA-MB-435 = tested on: MDA-MB-435
HOP-62 NSCLC = tested on: HOP-62 NSCLC
ACHN renal = tested on: ACHN renal
NCI/ADR-RES ovarian = tested on: NCI/ADR-RES ovarian
BT-549 breast = tested on: BT-549 breast
XF 498 CNS = tested on: XF 498 CNS
SNB-78 CNS = tested on: SNB-78 CNS
DLD-1 colon = tested on: DLD-1 colon
KM20L2 colon = tested on: KM20L2 colon

Compound	TGI (MDA-MB-231 breast) [µM]	TGI (MDA-N) [µM]	TGI (786-0 renal) [µM]	TGI (SR leukemia) [µM]	GI50 (PC-3 prostate)	TGI (PC-3 prostate) [µM]	TGI (MDA-MB-435) [µM]	TGI (HOP-62 NSCLC) [µM]	GI50 (ACHN renal)	TGI (ACHN renal) [µM]	TGI (NCI/ADR-RES ovarian) [µM]	TGI (BT-549 breast) [µM]	TGI (XF 498 CNS) [µM]	TGI (SNB-78 CNS) [µM]	TGI (DLD-1 colon) [µM]	TGI (KM20L2 colon) [µM]	GI50 (MDA-MB-231 breast) [µM]	GI50 (SR leukemia) [µM]	GI50 (SNB-78 CNS) [µM]	GI50 (HOP-62 NSCLC) [µM]
COC(=O)[C@@H]1CC(C(C[N+](=O)[O-])c2ccc(O[Si](C)(C)C(C)(C)C)cc2)C(=O)N1C(=O)OC(C)(C)C (some centres undefined)	> 100	> 100	> 100	> 100	> 100 µM and 34.5 µM	> 100	> 100	> 100	28.1 µM and > 100 µM	> 100	–	–	–	–	–	–	–	–	–	–
O=C1C(Cl)=C(Nc2ccc(S(=O)(=O)O)cc2)C(=O)c2ccccc21	> 100	–	84.6	> 100	–	69.5	39.6	> 100	–	45.8	> 100	> 100	–	–	–	–	–	–	–	–
O=C(Nc1nc2ccc([N+](=O)[O-])cc2s1)C(=O)C(C(=O)c1ccccc1F)C1OC(=O)c2ccccc21 (centres undefined)	–	–	–	54.2	–	–	–	> 100	–	> 100	–	–	> 100	> 100	> 100	> 100	–	–	–	–
Cc1cc(S(=O)(=O)Nc2nc3ccccc3nc2-c2cccc([N+](=O)[O-])c2)c(S)cc1Cl	> 100	46.2	45.6	47.4	–	50.8	41	39.2	–	64.3	48.3	72.8	–	–	–	–	–	–	–	–
COc1c(Br)cc2c(c1OC)C(Br)CCC(Br)(Br)C2=O (centres undefined)	8.32	0.684	1.46	1.29	–	4.03	3.62	4.81	–	5.21	2.77	1.37	–	–	–	–	–	–	–	–
CO/N=C(/C)c1ccc(NC(=O)CSc2nnc(-c3ccncc3)n2-c2ccccc2)cc1	8.79	–	–	> 100	–	–	–	–	–	–	–	–	–	–	–	–	2.57	> 100	–	–
CN(C)CCCN1c2ccccc2Sc2ccc3ccccc3c21	13.7	15.1	23.4	3.84	–	14.6	10.4	24.8	–	20.9	22.5	26.3	–	–	–	–	–	–	–	–
O=C1OC2(CC1C1(O)C3CC4CC(C3)CC1C4)C1CC3CC(C1)CC2C3 (centres undefined)	–	–	–	–	–	–	–	–	–	> 100	–	–	> 100	> 100	> 100	–	–	–	–	–
C=CC1(NC(=O)c2ccccc2)CCC(C(C)(C)C)CC1 (centres undefined)	–	–	–	–	–	–	–	> 90.5	–	–	76.1	–	> 70.6	> 100	> 100	39.7	–	–	–	–
O=C(c1ccccc1)c1ccc2nc(-c3c(Cl)c(Cl)c(Cl)c(Cl)c3C(=O)N/N=C/c3ccc(Cl)cc3)[nH]c2c1	61.4	> 100	99.6	> 100	–	> 100	> 100	> 100	–	65.7	> 100	> 100	–	–	–	–	–	–	–	–
CC(=O)Oc1cc2c(cc1OC(C)=O)OCC(c1ccccc1)C2 (centres undefined)	–	–	–	–	–	–	–	54.3	–	–	134	–	25.3	111	27.4	61.1	–	–	–	–
CCN(CC)c1ccc2cc(C(=O)Nc3ccc4[nH]c(C(=O)N5C[C@@H](CCl)c6c5cc(OC(=O)Nc5ccccc5)c5[nH]cc(C)c65)cc4c3)oc2c1	–	–	–	–	–	–	–	–	–	–	–	–	–	> 1000	–	> 1000	–	–	83.7	104
OCCNCCN1CCN(CCCN2c3ccccc3Sc3ccc(C(F)(F)F)cc32)CC1	35.5	33.7	31	> 100	–	62.1	33.7	38.1	–	43.2	54.6	> 100	–	–	–	–	–	–	–	–
O=c1ssc(=Nc2ccccc2)n1-c1ccccc1	60.5	> 100	34.6	40.9	–	38.5	> 100	46.5	–	31.1	68.2	–	–	–	–	–	–	–	–	–
N#C[C@H](OC1OC(COC2OC(CO)C(O)C(O)C2O)C(O)C(O)C1O)c1ccccc1 (some centres undefined)	–	–	–	–	–	–	–	> 250	–	–	> 250	–	> 25	> 250	> 250	> 250	–	–	–	–
CCCc1c(-c2ccccc2)[nH]c2ccccc2c1=O	> 100	> 100	–	> 100	–	> 100	> 100	> 100	–	> 100	–	> 100	–	–	–	–	–	–	–	–
O=C(CCl)NNC1=Nc2ccc(Cl)cc2SC1	–	–	–	–	–	–	–	31.8	–	–	3.79	–	3.92	4.51	3.6	9.18	–	–	–	–
